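1) Cells in 96-well plates. 2) Compound, 48 h, 5 concentrations. 3) Linear interpolation between surrounding doses. 4) Unreached endpoint = highest concentration. GI50: concentration for 50% inhibition of growth. TGI marks complete inhibition of growth.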
Experiments:
Assay in all cases: NCI-60 cell line screen, 48 h
786-0 renal = tested on: 786-0 renal
A498 renal = tested on: A498 renal
A549 NSCLC = tested on: A549 NSCLC
ACHN renal = tested on: ACHN renal
BT-549 breast = tested on: BT-549 breast
CAKI-1 renal = tested on: CAKI-1 renal
CCRF-CEM leukemia = tested on: CCRF-CEM leukemia
COLO 205 colon = tested on: COLO 205 colon
DU-145 prostate = tested on: DU-145 prostate
EKVX NSCLC = tested on: EKVX NSCLC
HCC-2998 colon = tested on: HCC-2998 colon
HCT-116 colon = tested on: HCT-116 colon
HCT-15 colon = tested on: HCT-15 colon
HL-60(TB) leukemia = tested on: HL-60(TB) leukemia
HOP-62 NSCLC = tested on: HOP-62 NSCLC
HOP-92 NSCLC = tested on: HOP-92 NSCLC
HS 578T breast = tested on: HS 578T breast
HT29 colon = tested on: HT29 colon
IGROV1 ovarian = tested on: IGROV1 ovarian
K-562 leukemia = tested on: K-562 leukemia
KM12 colon = tested on: KM12 colon
LOX IMVI melanoma = tested on: LOX IMVI melanoma
M14 melanoma = tested on: M14 melanoma
MALME-3M melanoma = tested on: MALME-3M melanoma
MCF7 breast = tested on: MCF7 breast
MDA-MB-231 breast = tested on: MDA-MB-231 breast
MDA-MB-435 = tested on: MDA-MB-435
MOLT-4 leukemia = tested on: MOLT-4 leukemia
NCI-H226 lung = tested on: NCI-H226 lung
NCI-H23 lung = tested on: NCI-H23 lung
NCI-H460 lung = tested on: NCI-H460 lung
NCI-H522 lung = tested on: NCI-H522 lung
NCI/ADR-RES ovarian = tested on: NCI/ADR-RES ovarian
OVCAR-3 ovarian = tested on: OVCAR-3 ovarian
OVCAR-4 ovarian = tested on: OVCAR-4 ovarian
OVCAR-5 ovarian = tested on: OVCAR-5 ovarian
OVCAR-8 ovarian = tested on: OVCAR-8 ovarian
PC-3 prostate = tested on: PC-3 prostate
RPMI-8226 leukemia = tested on: RPMI-8226 leukemia
RXF 393 renal = tested on: RXF 393 renal
SF-295 CNS = tested on: SF-295 CNS
SF-539 CNS = tested on: SF-539 CNS
SK-MEL-2 melanoma = tested on: SK-MEL-2 melanoma
SK-MEL-28 melanoma = tested on: SK-MEL-28 melanoma
SK-MEL-5 melanoma = tested on: SK-MEL-5 melanoma
SK-OV-3 ovarian = tested on: SK-OV-3 ovarian
SN12C renal = tested on: SN12C renal
SNB-19 CNS = tested on: SNB-19 CNS
SNB-75 CNS = tested on: SNB-75 CNS
SR leukemia = tested on: SR leukemia
SW-620 colon = tested on: SW-620 colon
T-47D breast = tested on: T-47D breast
TK-10 renal = tested on: TK-10 renal
U251 CNS = tested on: U251 CNS
UACC-257 melanoma = tested on: UACC-257 melanoma
UACC-62 melanoma = tested on: UACC-62 melanoma
UO-31 renal = tested on: UO-31 renal

Nc1ncnc2c1c(-c1ccc(Oc3ccccc3)cc1)nn2C[C@H]1SSC[C@H]1O
GI50 (786-0 renal): 2040 nM | TGI (786-0 renal): 6.37 µM | GI50 (A498 renal): 1840 nM | TGI (A498 renal): 4.24 µM | GI50 (A549 NSCLC): 394 nM | TGI (A549 NSCLC): 2070 nM | GI50 (ACHN renal): 499 nM | TGI (ACHN renal): 6.75 µM | GI50 (BT-549 breast): 2180 nM | TGI (BT-549 breast): 6.52 µM | GI50 (CAKI-1 renal): 938 nM | TGI (CAKI-1 renal): 2850 nM | GI50 (CCRF-CEM leukemia): 54 nM | TGI (CCRF-CEM leukemia): > 100 µM | GI50 (COLO 205 colon): 464 nM | TGI (COLO 205 colon): 1800 nM | GI50 (DU-145 prostate): 1070 nM | TGI (DU-145 prostate): 2370 nM | GI50 (EKVX NSCLC): 309 nM | TGI (EKVX NSCLC): 1730 nM | GI50 (HCC-2998 colon): 388 nM | TGI (HCC-2998 colon): 2030 nM | GI50 (HCT-116 colon): 48.9 nM | TGI (HCT-116 colon): 1210 nM | GI50 (HCT-15 colon): 201 nM | TGI (HCT-15 colon): 2290 nM | GI50 (HL-60(TB) leukemia): 242 nM | TGI (HL-60(TB) leukemia): 660 nM | GI50 (HOP-62 NSCLC): 39 nM | TGI (HOP-62 NSCLC): 893 nM | GI50 (HOP-92 NSCLC): 2030 nM | TGI (HOP-92 NSCLC): 7.31 µM | GI50 (HS 578T breast): 1880 nM | TGI (HS 578T breast): 8.7 µM | GI50 (HT29 colon): 179 nM | TGI (HT29 colon): 1480 nM | GI50 (IGROV1 ovarian): 455 nM | TGI (IGROV1 ovarian): 2470 nM | GI50 (K-562 leukemia): 197 nM | TGI (K-562 leukemia): 3.1 µM | GI50 (KM12 colon): 61.8 nM | TGI (KM12 colon): 2220 nM | GI50 (LOX IMVI melanoma): 70.3 nM | TGI (LOX IMVI melanoma): 523 nM | GI50 (M14 melanoma): 15.7 nM | TGI (M14 melanoma): 33.2 nM | GI50 (MALME-3M melanoma): 81.5 nM | TGI (MALME-3M melanoma): 332 nM | GI50 (MCF7 breast): 46.5 nM | TGI (MCF7 breast): 1200 nM | GI50 (MDA-MB-231 breast): 1330 nM | TGI (MDA-MB-231 breast): 3.71 µM | GI50 (MDA-MB-435): 25.5 nM | TGI (MDA-MB-435): 73.6 nM | GI50 (MOLT-4 leukemia): 18.4 nM | TGI (MOLT-4 leukemia): 49.2 nM | GI50 (NCI-H226 lung): 1430 nM | TGI (NCI-H226 lung): 3.42 µM | GI50 (NCI-H23 lung): 242 nM | TGI (NCI-H23 lung): 968 nM | GI50 (NCI-H460 lung): 23.3 nM | TGI (NCI-H460 lung): 56.5 nM | GI50 (NCI-H522 lung): 953 nM | TGI (NCI-H522 lung): 3.16 µM | GI50 (NCI/ADR-RES ovarian): 1770 nM | TGI (NCI/ADR-RES ovarian): 4.87 µM | GI50 (OVCAR-3 ovarian): 188 nM | TGI (OVCAR-3 ovarian): 421 nM | GI50 (OVCAR-4 ovarian): 1150 nM | TGI (OVCAR-4 ovarian): > 100 µM | GI50 (OVCAR-5 ovarian): 2200 nM | TGI (OVCAR-5 ovarian): > 31.3 µM | GI50 (OVCAR-8 ovarian): 1090 nM | TGI (OVCAR-8 ovarian): 3.87 µM | GI50 (PC-3 prostate): 2050 nM | TGI (PC-3 prostate): 11.8 µM | GI50 (RPMI-8226 leukemia): 1950 nM | TGI (RPMI-8226 leukemia): 9.13 µM | GI50 (RXF 393 renal): 1350 nM | TGI (RXF 393 renal): 4.31 µM | GI50 (SF-295 CNS): 678 nM | TGI (SF-295 CNS): 3.19 µM | GI50 (SF-539 CNS): 441 nM | TGI (SF-539 CNS): 5.97 µM | GI50 (SK-MEL-2 melanoma): 160 nM | TGI (SK-MEL-2 melanoma): 435 nM | GI50 (SK-MEL-28 melanoma): 25.8 nM | TGI (SK-MEL-28 melanoma): 79.3 nM | GI50 (SK-MEL-5 melanoma): 159 nM | TGI (SK-MEL-5 melanoma): 372 nM | GI50 (SK-OV-3 ovarian): 222 nM | TGI (SK-OV-3 ovarian): 1310 nM | GI50 (SN12C renal): 1400 nM | TGI (SN12C renal): 4.67 µM | GI50 (SNB-19 CNS): 510 nM | TGI (SNB-19 CNS): 20.1 µM | GI50 (SNB-75 CNS): 2880 nM | TGI (SNB-75 CNS): > 24 µM | GI50 (SR leukemia): 28.9 nM | TGI (SR leukemia): 127 nM | GI50 (SW-620 colon): 395 nM | TGI (SW-620 colon): > 100 µM | GI50 (T-47D breast): 205 nM | TGI (T-47D breast): 518 nM | GI50 (TK-10 renal): 289 nM | TGI (TK-10 renal): 1000 nM | GI50 (U251 CNS): 1200 nM | TGI (U251 CNS): 4.27 µM | GI50 (UACC-257 melanoma): 208 nM | TGI (UACC-257 melanoma): 1360 nM | GI50 (UACC-62 melanoma): 37.7 nM | TGI (UACC-62 melanoma): 145 nM | GI50 (UO-31 renal): 468 nM | TGI (UO-31 renal): 2770 nM

Reference: PubChem BioAssay (NCI)
